Measured values taken from US20220409617A1, “Drug Formulations and Methods of Treatment for Metabolic Disorders” (The Regents of the University of California, priority 2019, published 2022).
“Also recorded” adds a separate entry of the source.

How the values were obtained:
[1] = test system: mouse embryonic fibroblasts (MEFs); test: Ceramide-induced (C16:0 CER, C2-ceramide) mitochondrial fragmentation; assay type: cell-based; settings: MEFs; C16:0 CER 100 μM or C2-ceramide 50 μM 3 h; 893 5 μM, mdivi-1 50 μM, M1 5 μM, leflunomide 50 μM, P110 1 μM
Procedure: (§1) 3T3-L1 cells were maintained in DMEM with 10% FBS and 1% penicillin-streptomycin until induced to differentiate. 3T3-L1 pre-adipocytes were differentiated as described in (M. P. Valley, et al., Anal. Biochem. 505: 43-50, 2016, the disclosure of which is incorporated herein by reference) with slight modifications. Briefly, pre-adipocytes were grown to confluence. After 2 d, cells were induced with maintenance media containing 500 μM IBMX (15879, Sigma-Aldrich, St. Louis, Mo.), 1 μM dexamethasone (D4902, Sigma-Aldrich), 5 μg/mL bovine insulin (10516, Sigma-Aldrich), and 5 μM troglitazone (50-115-0786, ApexBio). Media was changed every 2-3 d for 7 d. On day 7 post-induction, media was changed to maintenance media+5 μg/mL bovine insulin. On day 9 post-induction, media was changed to maintenance media. Mature adipocytes were used 12-14 d post-induction for all experiments. LSL-KrasG12D mouse embryonic fibroblasts (MEFs) with and without Cre-mediated deletion of the STOP cassette were obtained from David Tuveson (Cold Spring Harbor Laboratory, Cold Spring Harbor N.Y., USA) in 2000. p53^flox/flox MEFs were derived in house (2015) from C57BL/6 mice using standard techniques and immortalized by transient expression of Cre recombinase and deletion of p53. MEFs were cultured and maintained in DMEM with 10% FBS and 1% penicillin-streptomycin. A549 cells were cultured in DMEM with 10% FBS, 1% penicillin-streptomycin and 1% sodium pyruvate. Stock solution of palmitic acid (ACROS Organics, cat # AC129702500) was prepared at 100 mM in ethanol. Palmitate (250 μM) was conjugated to 1% (w/v) fatty-acid free bovine serum albumin (Sigma, A8806) in DMEM at 37° C. for 20 min. For all immunofluorescence assays, 8,000 MEFs were seeded into 8-chamber slides (Cellvis, cat # C8-1.5H-N) 12-16 h before treatment. Cells were pre-treated with sphingolipid-like compound 893 (5 μM in water), myriocin (10 μM in methanol), fumonisin-B1 (30 μM in DMSO), or celastrol (500 nM in DMSO) for 3 h followed by a 3 h treatment with BSA-conjugated palmitate mixture or BSA alone. Where cells were treated with C2-ceramide (50 μM in DMSO) or C16:0 ceramide (100 μM in ethanol) for 3 h, cells were pre-treated with sphingolipid-like compound 893 for 1-3 h as indicated, mdivi-1 (50 μM in DMSO) for 1 h or 24 h, M1 (5 μM in DMSO) for 24 h, mdivi-1 and M1 together for 24 h, leflunomide (50 μM in methanol) for 1 h or 24 h, or with P110 (1 μM in water) for 1 h or 12 h. LSL or KRAS^G12D MEFs were treated with sphingolipid-like compound 893 (5 μM) for 6 h prior to fixation.
MEFs were washed twice with PBS and fixed with 4% paraformaldehyde for 10 min at RT. Cells were permeabilized with 0.3% Triton X-100 in blocking buffer containing 10% fetal bovine serum for 20 min at 37° C. followed by overnight incubation with mouse anti-citrate synthase (sc-390693, Santa Cruz Biotechnology; dilution, 1:200) or rabbit-anti-DRP1 at 1:100 (#8570, Cell Signaling Technology) at 4° C. Cells were then washed twice with PBS and incubated with AlexaFluor 488 goat anti-mouse (A28175, Invitrogen) or AlexaFluor 594 donkey anti-rabbit (A32754, Invitrogen) secondary antibodies at RT followed by 5 min incubation with 1 μg/ml DAPI and 2 washes in PBS. For NADH autofluorescence studies, mice were gavaged with vehicle or 120 mg/kg sphingolipid-like compound 893 at ZT8.5 (4-10.5 h before sacrifice between ZT12.5 and ZT18). Post sacrifice, livers were excised, washed 3× with PBS, placed in DMEM supplemented with 10% FBS and 1% penicillin-streptomycin, and immediately imaged. NADH/NADPH autofluorescence was detected with 740 nm excitation and 450±50 nm detectors using a Mai Tai two-photon laser. Fluorescence microscopy was performed on a Zeiss LSM 780 confocal using a 63× oil objective with a […] numerical aperture (NA) or using a Nikon TE2000-S inverted epifluorescence microscope with a 100× oil objective (1.3 NA) and a Photometrics CoolSNAP ES2 monochrome CCD camera. […]

A549 lung cancer cells = test: KRAS-mediated mitochondrial fission in A549 cells; assay type: cell-based, human; settings: A549, oncogenic KRAS; 893 5 μM 1 h, leflunomide 50 μM 24 h
Procedure: as §1, with “Where cells were treated with C2-ceramide (50 μM in DMSO) or C16:0 ceramide (100 μM in ethanol) for 3 h, cells were pre-treated with sphingolipid-like compound 893 for 1-3 h as indicated, mdivi-1 (50 μM in DMSO) for 1 h or 24 h, M1 (5 μM in DMSO) for 24 h, mdivi-1 and M1 together for 24 h, leflunomide (50 μM in methanol) for 1 h or 24 h, or with P110 (1 μM in water) for 1 h or 12 h. LSL or KRAS^G12D MEFs were treated with sphingolipid-like compound 893 (5 μM) for 6 h prior to fixation.” left out
MEFs were washed twice with PBS and fixed with 4% paraformaldehyde for 10 min at RT. […] NADH/NADPH autofluorescence was detected with 740 nm excitation and 450±50 nm detectors using a Mai Tai two-photon laser. Fluorescence microscopy was performed on a Zeiss LSM 780 confocal using a 63× oil objective with a […] numerical aperture (NA) or using a Nikon TE2000-S inverted epifluorescence microscope with a 100× oil objective (1.3 NA) and a Photometrics CoolSNAP ES2 monochrome CCD camera. […]

[2] = test system: C16:0 ceramide generation (CerS6); test: C16:0 ceramide levels in palmitate-treated MEFs (UPLC-MS/MS); assay type: cell-based, mouse; settings: MEFs; 3 h pre-treatment (893 5 μM, myriocin 10 μM, fumonisin B1 30 μM) then palmitate 250 μM 3 h
Procedure: Plasma pharmacokinetic analysis of sphingolipid-like compound 893 was performed by Pharmaron Corporation (Beijing, China). C16:0 ceramide levels were quantified in cells using the method described in (T. Kasumov, et al., Anal. Biochem. 401: 154-161, 2010, the disclosure of which is incorporated herein by reference) with minor modifications. Cultured cells were washed twice in PBS and scraped into 250 μL of HPLC grade water and flash frozen until time of analysis. On the day of analysis, samples were thawed, and an aliquot used for protein quantification. For C16:0 ceramide levels in mouse liver, 25 mg of tissue was homogenized in 1 ml of ice-cold PBS using a mechanical probe homogenizer (VWR, Radnor, Pa.), protein levels quantified, and 50 μl of the homogenate diluted with 150 μl HPLC-grade water for C16:0 ceramide analysis. Fifty ng of C17:0 ceramide prepared in ethanol (#22532, Cayman Chemical, Ann Arbor, Mich.) was added into 200 μL of the thawed cell suspension or liver homogenate as an internal standard to control for varying extraction efficiency; 750 μL of an ice-cold 1:2 chloroform/methanol mixture was then added. Samples were sonicated for 30 min and phase separation induced by the addition of 250 μL each of chloroform and HPLC-grade water. Samples were centrifuged at 4° C. for 10 min and the lower lipid phase transferred to a clean tube. The remaining protein and aqueous layers were re-extracted with an additional 500 μL of chloroform. Lipid phases were combined and then dried under vacuum. Dried extract was re-constituted in 100% acetonitrile immediately before analysis. Samples were analyzed by ultra-performance liquid chromatography tandem mass spectrometry (UPLC-MS/MS) using a Waters Micromass Quattro Premier XE equipped with a Waters ACQUITY BEH C4 column (Waters Corp.). Samples were resolved starting at 60% mobile phase A (10 mM ammonium acetate and 0.05% formic acid in water) to 98% mobile phase B (60:40 acetonitrile:isopropanol) over 3 min with a linear gradient, held at 98% B for 1 min, then the column was equilibrated with 60% A for 1 min. The mass spectrometer was operated in positive ion mode with the following parameters: cone voltage 20 V, source temperature 125° C., desolvation temperature 400° C. Ion transition channels for MS/MS were 538→264 for C16:0 ceramide and 552→264 for C17:0 ceramide, both with a dwell time of 285 ms. Standard curves prepared from C16:0 ceramide (#860516, Avanti Polar Lipids, Alabaster, Ala.) dissolved in ethanol were used for quantitation and were linear from 4.1 nM-1,000 nM, with an R^2 of 0.98 or greater.
3T3-L1 cells were maintained in DMEM with 10% FBS and 1% penicillin-streptomycin until induced to differentiate. […]

[3] = test system: mouse embryonic fibroblasts (MEFs); assay type: cell-based; settings: 3 h pre-treatment then palmitate 250 μM 3 h, 893 5 μM, myriocin 10 μM, fumonisin B1 30 μM, NAV-2729 12.5 μM, YM201636 800 nM, celastrol 500 nM
Procedure: Mitochondrial morphology was assessed by examining citrate synthesis expression under a high resolution microscopy. Specifically, the aspect ratio, branch length and roundness of mitochondria was assessed (FIG. 1).
LSL-KrasG12D mouse embryonic fibroblasts (MEFs) with and without Cre-mediated deletion of the STOP cassette were obtained from David Tuveson (Cold Spring Harbor Laboratory, Cold Spring Harbor N.Y., USA) in 2000. p53^flox/flox MEFs were derived in house (2015) from C57BL/6 mice using standard techniques and immortalized by transient expression of Cre recombinase and deletion of p53. MEFs were cultured and maintained in DMEM with 10% FBS and 1% penicillin-streptomycin. […] Stock solution of palmitic acid (ACROS Organics, cat # AC129702500) was prepared at 100 mM in ethanol. Palmitate (250 μM) was conjugated to 1% (w/v) fatty-acid free bovine serum albumin (Sigma, A8806) in DMEM at 37° C. for 20 min. For all immunofluorescence assays, 8,000 MEFs were seeded into 8-chamber slides (Cellvis, cat # C8-1.5H-N) 12-16 h before treatment. Cells were pre-treated with sphingolipid-like compound 893 (5 μM in water), myriocin (10 μM in methanol), fumonisin-B1 (30 μM in DMSO), or celastrol (500 nM in DMSO) for 3 h followed by a 3 h treatment with BSA-conjugated palmitate mixture or BSA alone.

| Compound | Protection from ceramide-induced mitochondrial fragmentation [1] | Reversal of mitochondrial fragmentation / tubularity in A549 cells (A549 lung cancer cells) | Palmitate-induced C16:0 ceramide production [2] | Protection from palmitate-induced mitochondrial fragmentation (aspect ratio, branch length, roundness) [3] |
| --- | --- | --- | --- | --- |
| CC(=NNc1c(Cl)cc(Cl)cc1Cl)c1cc(Cl)ccc1O [M1] | neither compound alone or in combination prevented ceramide- or KRAS-induced mitochondrial fragmentation | – | – | – |
| CCCC[C@@H](C)[C@@H](OC(=O)C[C@@H](CC(=O)O)C(=O)O)[C@H](C[C@@H](C)C[C@H](O)CCCC[C@@H](O)C[C@H](O)[C@H](C)N)OC(=O)C[C@@H](CC(=O)O)C(=O)O [fumonisin B1] | – | did not increase mitochondrial tubularity in A549 cells | Blocking ceramide production | prevented palmitate-induced morphological changes |
| COc1cc(-n2c(=S)[nH]c3ccccc3c2=O)c(Cl)cc1Cl [mdivi-1] | failed to prevent C16:0 ceramide-induced mitochondrial fragmentation; also recorded: neither compound alone or in combination prevented ceramide- or KRAS-induced mitochondrial fragmentation | – | – | – |
| CCCCCCC(=O)CCCCCC/C=C/C[C@@H](O)[C@H](O)[C@@](N)(CO)C(=O)O [myriocin] | – | did not increase mitochondrial tubularity in A549 cells | Blocking ceramide production | prevented palmitate-induced morphological changes |
| NAV-2729 | – | – | – | partial protection from palmitate-induced mitochondrial fragmentation |
